The assay relates to Qβ phage (NBRC 20012). Put plainly: phage inactivation ability test on sample-coated glass plate (Example 1 method). Format: cell-based. The following applies: same copper ion ratio, contact of 30 minutes, FIG. 2.
With `[Cl][Cu]` [CuCl, cuprous chloride], the phage inactivation effect result was “almost the same phage inactivation ability as that of cuprous oxide”.

As for “cupric sulfide [CuS, reference compound]”, the phage inactivation effect result is “almost no inactivation effect”.

Take cuprous sulfide [Cu2S]: the phage inactivation effect entry is given as “high phage inactivation effect”.

As to `[Cu+].[I-]` [CuI, cuprous iodide], the phage inactivation effect result is given as “high phage inactivation effect”.
